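96-well plates; 48 h exposure; 5 concentrations. Endpoints by linear interpolation between flanking doses. Not reached: highest tested concentration assigned. GI50: concentration for 50% inhibition of growth.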 Activity calls are given as the source filed them. Cut-off read from the data, not from the text of the source: active = GI50 up to about 1.1 µM and inactive = higher.
Legend:
Test in all cases: inhibition of tumour cell growth, NCI panel, 48 h
786-0 = test system: 786-0
A498 = test system: A498
CCRF-CEM = test system: CCRF-CEM
HCT-116 = test system: HCT-116
HOP-92 = test system: HOP-92
IGROV-1 = test system: IGROV-1
K562 = test system: K562
KM12 = test system: KM12
OVCAR-3 = test system: OVCAR-3
SK-MEL-5 = test system: SK-MEL-5
SN12C = test system: SN12C
SNB-78 = test system: SNB-78
TK-10 = test system: TK-10
RXF 393 = test system: RXF 393
BT-549 = test system: BT-549
MCF7 = test system: MCF7
MDA-MB-231 = test system: MDA-MB-231
MDA-MB-435 = test system: MDA-MB-435
PC-3 = test system: PC-3
T47D = test system: T47D

| SMILES | GI50 (786-0) | GI50 (A498) | GI50 (CCRF-CEM) | GI50 (HCT-116) | GI50 (HOP-92) | GI50 (IGROV-1) | GI50 (K562) | GI50 (KM12) | GI50 (OVCAR-3) | GI50 (SK-MEL-5) | GI50 (SN12C) | GI50 (SNB-78) | GI50 (TK-10) | GI50 (RXF 393) | GI50 (BT-549) | GI50 (MCF7) | GI50 (MDA-MB-231) | GI50 (MDA-MB-435) | GI50 (PC-3) | GI50 (T47D) |
| --- | --- | --- | --- | --- | --- | --- | --- | --- | --- | --- | --- | --- | --- | --- | --- | --- | --- | --- | --- | --- |
| COC(=O)[C@H]1C2CC[C@@H]3C45C[C@@H](c6ccoc6)O[C@@H]4O[C@@H](O2)C31CCC5C (some centres not stated) | 91.2 µM (inactive) | > 100 µM (inactive) | 56.4 µM (inactive) | > 100 µM (inactive) | 44.6 µM (inactive) | > 100 µM (inactive) | 32.1 µM (inactive) | > 100 µM (inactive) | > 100 µM (inactive) | > 100 µM (inactive) | > 100 µM (inactive) | 25.7 µM (inactive) | > 100 µM (inactive) | – | – | – | – | – | – | – |
| CN/N=C(/CC(=O)c1sc(NNC(C)=O)nc1C)C(=O)Nc1ccc(OC)cc1OC | > 100 µM (inactive) | > 100 µM (inactive) | > 100 µM (inactive) | > 100 µM (inactive) | > 100 µM (inactive) | > 100 µM (inactive) | > 100 µM (inactive) | > 100 µM (inactive) | > 100 µM (inactive) | > 100 µM (inactive) | > 100 µM (inactive) | > 100 µM (inactive) | > 100 µM (inactive) | – | – | – | – | – | – | – |
| FC(F)(F)c1nc(Br)[nH]c1C(F)(F)F | > 100 µM (inactive) | – | 66.5 µM (inactive) | 45.7 µM (inactive) | 27.8 µM (inactive) | > 100 µM (inactive) | 43 µM (inactive) | > 100 µM (inactive) | 60.4 µM (inactive) | 76.7 µM (inactive) | 69 µM (inactive) | > 100 µM (inactive) | > 100 µM (inactive) | 73.5 µM (inactive) | – | – | – | – | – | – |
| Cc1ccc(NC(=O)CCC(=O)C2CC(=O)CCC2=O)cc1C (configuration not stated) | > 100 µM (inactive) | – | > 100 µM (inactive) | > 100 µM (inactive) | 76.4 µM (inactive) | > 100 µM (inactive) | > 100 µM (inactive) | > 100 µM (inactive) | > 100 µM (inactive) | > 100 µM (inactive) | > 100 µM (inactive) | > 100 µM (inactive) | > 100 µM (inactive) | > 100 µM (inactive) | – | – | – | – | – | – |
| CCCCCN(CCCCC)C(=O)[C@H](CCC(=O)OCc1ccccc1)NC(=O)c1cc2ccccc2[nH]1 | > 100 µM (inactive) | > 100 µM (inactive) | > 100 µM (inactive) | > 100 µM (inactive) | > 100 µM (inactive) | > 100 µM (inactive) | > 100 µM (inactive) | > 100 µM (inactive) | > 100 µM (inactive) | – | > 100 µM (inactive) | > 100 µM (inactive) | – | > 100 µM (inactive) | – | – | – | – | – | – |
| COC(=O)/C=C(C)/C=C/c1cc(C(C)=O)c(C)o1 | > 100 µM (inactive) | – | > 100 µM (inactive) | > 100 µM (inactive) | 23.2 µM (inactive) | > 100 µM (inactive) | 62.1 µM (inactive) | > 100 µM (inactive) | > 100 µM (inactive) | – | – | > 100 µM (inactive) | – | – | – | – | – | – | – | – |
| COC(=O)C(C(=O)C(=O)Nc1cccc([N+](=O)[O-])c1)c1nc2ccc([N+](=O)[O-])cc2nc1O (configuration not stated) | > 100 µM (inactive) | > 100 µM (inactive) | > 100 µM (inactive) | > 100 µM (inactive) | – | > 100 µM (inactive) | > 100 µM (inactive) | > 100 µM (inactive) | > 100 µM (inactive) | > 100 µM (inactive) | > 100 µM (inactive) | > 100 µM (inactive) | > 100 µM (inactive) | > 100 µM (inactive) | – | – | – | – | – | – |
| CC(C)(C)C1=CC(=C(c2ccc(-c3c4nc(c(-c5ccc(C(=C6C=C(C(C)(C)C)C(=O)C(C(C)(C)C)=C6)c6cc(C(C)(C)C)c(O)c(C(C)(C)C)c6)cc5)c5ccc([nH]5)c(-c5ccc(C(=C6C=C(C(C)(C)C)C(=O)C(C(C)(C)C)=C6)c6cc(C(C)(C)C)c(O)c(C(C)(C)C)c6)cc5)c5nc(c(-c6ccc(C(=C7C=C(C(C)(C)C)C(=O)C(C(C)(C)C)=C7)c7cc(C(C)(C)C)c(O)c(C(C)(C)C)c7)cc6)c6ccc3[nH]6)C=C5)C=C4)cc2)c2cc(C(C)(C)C)c(O)c(C(C)(C)C)c2)C=C(C(C)(C)C)C1=O | > 77.8 µM (inactive) | > 100 µM (inactive) | > 100 µM (inactive) | > 100 µM (inactive) | > 100 µM (inactive) | > 100 µM (inactive) | > 100 µM (inactive) | > 100 µM (inactive) | > 100 µM (inactive) | > 100 µM (inactive) | > 100 µM (inactive) | – | > 100 µM (inactive) | > 70.8 µM (inactive) | > 100 µM (inactive) | > 100 µM (inactive) | > 100 µM (inactive) | > 100 µM (inactive) | > 100 µM (inactive) | > 100 µM (inactive) |
| COc1ccc2c(c1)c1c(n2CCN2CCOCC2)-c2cccc(OC)c2CC1 | 30.4 µM (inactive) | 26.6 µM (inactive) | 18.7 µM (inactive) | 33.7 µM (inactive) | 45.8 µM (inactive) | 43.1 µM (inactive) | 17.3 µM (inactive) | 20.4 µM (inactive) | 52.7 µM (inactive) | 41.6 µM (inactive) | 47.2 µM (inactive) | – | 44.6 µM (inactive) | 24.2 µM (inactive) | 37.2 µM (inactive) | 23.5 µM (inactive) | 27.6 µM (inactive) | 44 µM (inactive) | 23.7 µM (inactive) | 59 µM (inactive) |
| COc1cc2c(c(OC)c1OC)-c1ccc(SC)c(=O)cc1[C@@H](NC(=O)C(F)(F)F)CC2 | < 0.01 µM (active) | < 0.01 µM (active) | < 0.01 µM (active) | < 0.01 µM (active) | < 0.01 µM (active) | < 0.01 µM (active) | < 0.01 µM (active) | < 0.01 µM (active) | < 0.0158 µM (active) | < 0.01 µM (active) | < 0.01 µM (active) | – | 8.63 µM (inactive) | < 0.01 µM (active) | 0.0118 µM (active) | < 0.01 µM (active) | < 0.01 µM (active) | < 0.01 µM (active) | < 0.01 µM (active) | > 60.8 µM (inactive) |
| CSc1ncc2c(C#N)c3sc4ccccc4n3c(=O)c2n1 | 41.8 µM (inactive) | > 100 µM (inactive) | > 100 µM (inactive) | > 100 µM (inactive) | > 100 µM (inactive) | > 100 µM (inactive) | > 100 µM (inactive) | 54.2 µM (inactive) | > 100 µM (inactive) | 64.6 µM (inactive) | > 100 µM (inactive) | – | 61.1 µM (inactive) | > 100 µM (inactive) | > 100 µM (inactive) | 16.8 µM (inactive) | 41.1 µM (inactive) | > 100 µM (inactive) | > 100 µM (inactive) | 91.8 µM (inactive) |
| CC(C)C(NCc1c2ccccc2[n+]([O-])c2ccccc12)C(=O)O (configuration not stated) | 54.7 µM (inactive) | > 100 µM (inactive) | 35.3 µM (inactive) | 25.3 µM (inactive) | 1.8 µM (inactive) | 89.1 µM (inactive) | 32.1 µM (inactive) | 52.6 µM (inactive) | 93.1 µM (inactive) | 46.5 µM (inactive) | 44.8 µM (inactive) | 68.2 µM (inactive) | > 100 µM (inactive) | – | – | – | – | – | – | – |
| O=C(NC(Cc1c[nH]c2ccccc12)C(=O)Nc1ccc(Br)cc1)OCc1ccccc1 (configuration not stated) | 10.8 µM (inactive) | 11.4 µM (inactive) | 3.6 µM (inactive) | 9.82 µM (inactive) | 5.18 µM (inactive) | 9.12 µM (inactive) | 6.82 µM (inactive) | 6.31 µM (inactive) | 11.6 µM (inactive) | 10.7 µM (inactive) | 9.46 µM (inactive) | – | 14.9 µM (inactive) | 9.33 µM (inactive) | 14.8 µM (inactive) | 10.4 µM (inactive) | 10.2 µM (inactive) | 8.83 µM (inactive) | 10.4 µM (inactive) | 10 µM (inactive) |
| COC(=O)C(=O)C(C(=O)C(=O)Nc1cccc(C(C)=O)c1)c1nc2ccc([N+](=O)[O-])cc2nc1O (configuration not stated) | > 100 µM (inactive) | > 100 µM (inactive) | > 100 µM (inactive) | > 100 µM (inactive) | > 100 µM (inactive) | > 100 µM (inactive) | > 100 µM (inactive) | > 100 µM (inactive) | – | > 100 µM (inactive) | > 100 µM (inactive) | > 100 µM (inactive) | > 100 µM (inactive) | > 100 µM (inactive) | – | – | – | – | – | – |
| NC(=O)NNCc1c(-c2ccccc2)no[n+]1[O-] | > 100 µM (inactive) | > 100 µM (inactive) | > 100 µM (inactive) | > 100 µM (inactive) | > 100 µM (inactive) | > 100 µM (inactive) | > 100 µM (inactive) | > 100 µM (inactive) | > 100 µM (inactive) | > 100 µM (inactive) | > 100 µM (inactive) | – | > 100 µM (inactive) | > 100 µM (inactive) | > 100 µM (inactive) | > 100 µM (inactive) | > 100 µM (inactive) | > 100 µM (inactive) | > 100 µM (inactive) | > 100 µM (inactive) |
| CCOC(=O)Cn1c(C)nc2nn(Cc3ccccc3)cc2c1=O | > 100 µM (inactive) | > 100 µM (inactive) | > 100 µM (inactive) | > 100 µM (inactive) | > 100 µM (inactive) | > 100 µM (inactive) | > 100 µM (inactive) | > 100 µM (inactive) | > 100 µM (inactive) | > 100 µM (inactive) | > 100 µM (inactive) | – | > 100 µM (inactive) | > 100 µM (inactive) | > 100 µM (inactive) | > 100 µM (inactive) | > 100 µM (inactive) | > 100 µM (inactive) | > 100 µM (inactive) | > 100 µM (inactive) |
| COc1ccccc1OCc1nnc(SCC(=O)O)n1-c1ccccc1 | > 100 µM (inactive) | > 100 µM (inactive) | > 100 µM (inactive) | > 100 µM (inactive) | > 100 µM (inactive) | > 100 µM (inactive) | – | > 100 µM (inactive) | > 100 µM (inactive) | > 100 µM (inactive) | > 100 µM (inactive) | > 100 µM (inactive) | > 100 µM (inactive) | – | – | – | – | – | – | – |

Source: ChEMBL document CHEMBL1201862, “PubChem BioAssay data set” (2004)
